How the values were obtained:
SKOV3 CR cells = assay: cell viability / proliferation (SRB) assay, cisplatin resistant SKOV3 CR cells; format: cell-based; conditions: combination with carboplatin, CI<1 synergism
[1] = tested on: reactive oxygen species (ROS); assay: ROS production (CellROX Orange reagent); format: cell-based; conditions: SKOV3 cells, YCG063 20 μM, cisplatin 1 μM, 24 hr
Method: FIG. 69 are bar graphs ((A)-(C) and (E)-(F)) and illustrations ((D) and (G)) showing that reactive oxygen species (ROS) induces IL-11 expression. (A) is a bar graph showing quantification of ROS production in SKOV3 and SKOV3 CR cells. Data are represented as means±SD from three independent experiments. **p<0.01. Scale bar, 100 μm. (B) is a bar graph showing quantification of ROS production in SKOV3 CR cells after treatment with the ROS inhibitor YCG063 at 20 μM for 24 hr. Data are represented as means±SD from three independent experiments. ***p<0.001. (C) is a bar graph showing IL-11 levels measured by ELISA in the medium of SKOV3 CR cells treated with YCG063 at 20 μM for 24 hr. Data are represented as mean±SD from three independent experiments performed in triplicate. ***p<0.001. […] (E) is a bar graph showing quantification of ROS production in SKOV3 cells after treated with the ROS inhibitor YCG063 (20 μM), cisplatin (1 μM), or both for 24 hr. […] (F) is a bar graph showing IL-11 levels measured by ELISA in SKOV3 cells treated with YCG063 (20 μM), cisplatin (1 μM) or both for 24 hr. […]
DNA damage induces generation of reactive oxygen species (ROS). […] ROS was detected with a live cell-permeable, fluorophore CellROX Orange reagent (Thermo Fisher Scientific) according to the manufacturer's instructions. […] ROS intensity was analyzed using ImageJ (NIH) software. […]

IL-11 = IL-11 secretion by ELISA in cell culture medium; format: cell-based, human; conditions: SKOV3 cells, various small doses of cisplatin, four days
Method: FIG. 69 are bar graphs ((A)-(C) and (E)-(F)) and illustrations ((D) and (G)) showing that reactive oxygen species (ROS) induces IL-11 expression. (A) is a bar graph showing quantification of ROS production in SKOV3 and SKOV3 CR cells. Data are represented as means±SD from three independent experiments. **p<0.01. Scale bar, 100 μm. (B) is a bar graph showing quantification of ROS production in SKOV3 CR cells after treatment with the ROS inhibitor YCG063 at 20 μM for 24 hr. Data are represented as means±SD from three independent experiments. ***p<0.001. (C) is a bar graph showing IL-11 levels measured by ELISA in the medium of SKOV3 CR cells treated with YCG063 at 20 μM for 24 hr. Data are represented as mean±SD from three independent experiments performed in triplicate. ***p<0.001. (D) is an illustration showing an immunoblot of phosphorylated JAK2 and STAT5 in SKOV3 CR cells treated with YCG063 (20 μM) for 24 hr. (E) is a bar graph showing quantification of ROS production in SKOV3 cells after treated with the ROS inhibitor YCG063 (20 μM), cisplatin (1 μM), or both for 24 hr. Data are represented as means±SD from three independent experiments. **p<0.01, ***p<0.001, n.s. means not significant by one-way ANOVA. (F) is a bar graph showing IL-11 levels measured by ELISA in SKOV3 cells treated with YCG063 (20 μM), cisplatin (1 μM) or both for 24 hr. Data are represented as mean±SD from three independent experiments performed in triplicate. ***p<0.001 by one-way ANOVA. (G) is an illustration showing an immunoblot of phosphorylated JAK2 and STAT5 in SKOV3 CR cells treated with YCG063 (20 μM), cisplatin (1 μM) or both for 24 hr.
Next, the factor from medium that contributes to cisplatin resistance of SKOV3 CR cells was investigated. […] The cell-free culture medium, mouse serum, and patient serum were analyzed for IL-11 levels using a human IL-11 ELISA kit (R&D Systems) according to the manufacturer's instructions. The absorbance was read at 450 nm using a microplate reader (BioTek). The data were normalized to the cell number. […]

SKOV3 xenograft tumors = assay: SKOV3 and SKOV3 CR xenograft tumors treated with cisplatin; format: in vivo, nude mice
Method: FIG. 4 is an illustration showing representative TUNEL staining (A) and a bar graph (B) of SKOV3 and SKOV3 CR xenograft tumors treated with cisplatin for two weeks (2 mg/kg or 4 mg/kg cisplatin twice per week) and quantified apoptosis percentage (B). n−3 mice/group. Bar in (A)−50 μm. Data are represented as mean±SD. **p<0.01, ***p<0.001.
FIG. 52 is a bar graph showing IL-11 levels measured by ELISA in plasma of mice bearing SKOV3 xenograft tumors treated with vehicle or cisplatin (2-6 mg/kg/twice a week intraperitoneally for 2 weeks). Data are represented as mean±SD. n=3 mice/group. **p<0.01, ***p<0.001.
Since cisplatin exerts its anticancer effect mainly through its ability to cause DNA damage, resulting in apoptosis, the apoptotic cells in both SKOV3 and SKOV CR cells were measured using Annexin V and Propidium Iodide staining. […] To test whether SKOV3 CR cells are resistant to cisplatin-induced apoptosis in vivo, both SKOV3 and SKOV3 CR cells were injected into nude mice to form xenograft tumors. Once the tumor size reached 100-150 mm^3, cisplatin was given to mice by intraperitoneal injections twice a week for 2 weeks. Three days after treatment, the apoptosis in tumors was examined by TUNEL staining. […] Currently, carboplatin is a more commonly used platinum drug employed clinically to treat ovarian patients. Ozols et al., J Clin Oncol 21: 3194-3200 (2003). Thus, it was tested whether SKOV3 CR cells are also resistant to carboplatin (Sigma-Aldrich).
To further test whether ovarian cancer cells have a similar response to cisplatin in vivo, SKOV3 xenograft tumors were treated with various doses of cisplatin (2 mg-6 mg/kg/twice per week) for 2 weeks. Mice were sacrificed 4 days after the last treatment, and blood samples and xenograft tumors were collected to examine IL-11 expression. […] A high dose of cisplatin generated the high levels of both IL-11 and pJAK2 (Y1007/1008) on tumors (FIG. 53). Thus, cisplatin is able to promote expression of IL-11 as well as JAK2 pathway both in vitro and in vivo.

PEO1 cells = assay: cell proliferation assay, PEO1 cells; format: cell-based; conditions: 5 days
Source text: FIG. 63 is a line graph showing the proliferation of PEO1 and PEO4 cells treated with increasing concentrations of cisplatin for 5 days. Data are represented as mean±SD from three independent experiments performed in triplicate. Indicated IC50 values represent the mean of […] independent experiments performed in triplicate.
For ovarian cancer, recurrence more than 12 months after initial chemotherapy was considered as platinum sensitive. PEO4 was derived from the patient 10 months later when they had progressive disease and had become cisplatin resistant.

[2] = SKOV3 xenograft, cisplatin 2-6 mg/kg twice per week for 2 weeks

Row | Compound | medium CI (combination index) (SKOV3 CR cells) | ROS production [1] | IL-11 secretion (IL-11) | IL-11 and pJAK2 levels in tumors (IHC) (SKOV3 xenograft tumors; [2]) | human IL-11 levels in serum (SKOV3 xenograft tumors; [2]) | apoptosis in xenograft tumors (TUNEL) (SKOV3 xenograft tumors; cisplatin i.p. twice a week for 2 weeks (2 or 4 mg/kg), three days after treatment) | IC50 (PEO1 cells) [µM]
1 | Cc1cc(Nc2cc(CN3CCOCC3)c3nc(C)c(Cc4ccc(Cl)cc4F)n3n2)n[nH]1 [LY2784544] | 0.75 |  |  |  |  |  | 
2 | N.N.[Cl][Pt][Cl] [cisplatin] |  | activated ROS production | increased in a cisplatin dose dependent manner | significant increase of IL-11 as well as pJAK2 (Y1007/1008) levels in SKOV3 tumors | dramatically increased human IL-11 levels in serum of nude mice | apoptotic population was significantly increased in SKOV3 but not in SKOV3 CR cells | 0.32
